Columns and labels:
[1] = test system: dexamethasone-induced thymic and splenic atrophy; test: Dexamethasone-induced thymic and splenic atrophy in mice; format: in vivo, CD-1 mice; parameters: Thymus wt / Spleen wt: unit not given here; conditions: for Approximate Potency Compared to Fluasterone in Protecting Against DEX-induced Thymic and Splenic Involution: fluasterone = 1
Protocol: Administration of dehydroepiandrosterone (DHEA, 60 mg/kg, s.c.) for three days partially reverse thymic and splenic atrophy induced by a single injection of dexamethasone (1.6 mg/mouse). In this experiment, the efficacy of either 10 mg/kg or 20 mg/kg DHEA administered s.c. versus the effect of 10 mg/kg or 20 mg/kg fluasterone was investigated.
5% Cremophor (polyethoxylated castor oil; Sigma Chemicals)-95% saline vehicle was prepared using 95 mL of sterile 0.9% NaCl (filtered through sterile 0.22 micron filter) and 5 mL of Cremophor. The Cremophor was dissolved by swirling for approximately 5 minutes.
Dexamethasone solutions were prepared by dissolving dexamethasone (Sigma Chemicals) in absolute ethanol. For example, 71.9 mg of dexamethasone was dissolved in 2.9 mL of absolute ethanol. In order to prevent precipitation, the solution was kept on a hotplate between injections.
For the 10 mg/kg suspension, 25.7 mg of DHEA was weighed out, transferred to a glass scintillation vial, and 10.3 mL of the Cremophor-saline vehicle was added. The DHEA suspension was homogenized using a Tissumizer at 80% power for 30 sec. The Tissumizer was rinsed with 70% ethanol prior to homogenization. After the 10 mg/kg DHEA suspension was homogenized the probe was rinsed 2× with 50 mL of absolute ethanol, then with 50 mL of 70% ethanol, and then dried with sterile gauze. For the 20 mg/kg DHEA suspension, 50.9 mg DHEA was suspended in 10.2 mL of Cremophor-saline vehicle.
19.4 mg of fluasterone was weighed out and transferred to a glass scintillation vial. 7.8 mL of Cremophor-saline vehicle was added to the vial and the contents of the vial were homogenized with a Tissumizer as described previously. Prior to preparing the 20 mg/kg fluasterone, the probe was rinsed 2× with 50 mL of absolute ethanol and 1× with 50 mL of 70% ethanol. For the 20 mg/kg suspension, 47.0 mg was weighed out and transferred to a glass scintillation vial. 9.4 mL of Cremophor-saline vehicle was added to the vial and the contents of the vial were homogenized with a Tissumizer as described above.
Female CD-1 mice, 43-45 days old, were obtained from Charles River Laboratories. The mice were housed 5 per cage in plastic shoebox cages with ad libitum access to Purina chow 5015 and water in the Pharmacy CAF with 12 hr of alternating light and darkness.
Prior to the experiment the mice were weighed, separated into 6 groups containing 5 mice each and treated as follows:
Mice were treated s.c. with 0.1 mL of 5% Cremophor-95% saline for three days. On the third day, the mice were also treated s.c. with 1.6 mg of dexamethasone dissolved in 0.06 mL of absolute. ethanol.
Mice were treated s.c. with 0.25 mg of DHEA suspended in 0.1 mL of 5% Cremophor-95% saline for three days. On the third day, the mice were also treated s.c. with 1.6 mg of dexamethasone dissolved in 0.06 mL of absolute ethanol.
Mice were treated s.c. with 0.5 mg of DHEA suspended in 0.1 mL of 5% Cremophor-95% saline for three days. On the third day, the mice were also treated s.c. with 1.6 mg of dexamethasone dissolved in 0.06 mL of absolute ethanol.
Mice were treated s.c. with 0.25 mg of fluasterone suspended in 0.1 mL of 5% Cremophor-95% saline for three days. On the third day, the mice were also treated s.c. with 1.6 mg of dexamethasone dissolved in 0.06 mL of absolute ethanol.
Mice were treated s.c. with 0.5 mg of fluasterone suspended in 0.1 mL of 5% Cremophor-95% saline for three days. On the third day, the mice were also treated s.c. with 1.6 mg of dexamethasone dissolved in 0.06 mL of absolute ethanol.
All s.c. injections were made in the nape. All mice were lightly anesthetized while the s.c. injections were done.
Twenty-four hours after dexamethasone treatment, the mice were euthanized by an overdose of isoflurane. The spleen and thymus were removed, cleaned of any adventitia, rinsed, blotted on filter paper, and weighed. […]

[2] = biological target: glucose 6-phosphate dehydrogenase (G6PDH) (Homo sapiens, UniProt P11413); conditions: Schwartz et al., Cancer Res. 48:4817-4822, 1988; cited from earlier work
[3] = Fate of orally administered 14C-fluasterone
[4] = Table 15, steroid 10 mg/kg in Cremophor-saline + dexamethasone
[5] = Table 15, steroid 20 mg/kg in Cremophor-saline + dexamethasone
[6] = Table 16, steroid 20 mg/kg + dexamethasone
[7] = Table 16, steroid 40 mg/kg + dexamethasone
[8] = Table 16, steroid 5 mg/kg + dexamethasone
[9] = Table 16, steroid 10 mg/kg + dexamethasone
[10] = Table 16, steroid 60 mg/kg + dexamethasone

Sequence of glucose 6-phosphate dehydrogenase (G6PDH) (P11413 whole entry): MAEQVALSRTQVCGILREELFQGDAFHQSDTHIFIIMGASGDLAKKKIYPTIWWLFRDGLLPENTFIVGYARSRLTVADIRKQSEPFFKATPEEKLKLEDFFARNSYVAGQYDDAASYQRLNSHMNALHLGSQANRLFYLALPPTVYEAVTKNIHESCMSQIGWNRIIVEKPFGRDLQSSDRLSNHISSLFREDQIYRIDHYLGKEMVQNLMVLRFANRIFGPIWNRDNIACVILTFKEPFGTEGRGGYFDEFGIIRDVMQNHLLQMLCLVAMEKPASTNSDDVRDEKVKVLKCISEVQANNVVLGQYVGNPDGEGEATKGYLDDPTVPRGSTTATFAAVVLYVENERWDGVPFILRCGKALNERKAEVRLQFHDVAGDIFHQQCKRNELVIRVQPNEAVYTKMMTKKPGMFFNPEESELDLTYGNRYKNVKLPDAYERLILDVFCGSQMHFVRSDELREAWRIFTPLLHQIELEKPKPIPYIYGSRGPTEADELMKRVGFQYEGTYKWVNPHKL

C[C@@H]1C[C@H]2[C@@H]3CCC4=CC(=O)C=C[C@]4(C)[C@@]3(F)[C@@H](O)C[C@]2(C)[C@@]1(O)C(=O)CO [DEXAMETHASONE, dexamethasone, reference compound]
Thymus wt ([1]; Table 12, dexamethasone 1.6 mg s.c. once after vehicle s.c. 3 days, 24 h after dexamethasone): 33.2 ± 1.3

C[C@H]1CC[C@@]2(C)C(=CC[C@@H]3[C@@H]2CC[C@]2(C)C(=O)[C@H](F)C[C@@H]32)C1 [3β-methyl-16α-fluoro-5-androsten-17-one]
Spleen wt [1, 4]: 50.9 ± 7.5 | Spleen wt/BW [1, 4]: 2.0 ± 0.3 | Thymus wt [1, 4]: 43.8 ± 3.0 | Thymus wt/BW [1, 4]: 1.7 ± 0.1 | Spleen wt [1, 5]: 55.0 ± 4.6 | Spleen wt/BW [1, 5]: 2.2 ± 0.1 | Thymus wt [1, 5]: 55.8 ± 5.4 | Thymus wt/BW [1, 5]: 2.2 ± 0.2 | Approximate Potency Compared to Fluasterone in Protecting Against DEX-induced Thymic and Splenic Involution ([1]; mice): <½

C[C@]12CCCC[C@@H]1CC[C@@H]1[C@@H]2CC[C@]2(C)C(=O)[C@H](F)C[C@@H]12 [compound 8356, 16α-fluoro-5α-androstan-17-one]
Body Weight [1, 6]: 25.2 ± 2.9 | Spleen wt [1, 6]: 54.0 ± 4.5 | Spleen wt/BW [1, 6]: 2.0 ± 0.3 | Thymus wt [1, 6]: 40.8 ± 5.8 | Thymus wt/BW [1, 6]: 1.6 ± 0.1 | Body Weight [1, 7]: 25.2 ± 1.4 | Spleen wt [1, 7]: 51.2 ± 3.0 | Spleen wt/BW [1, 7]: 2.0 ± 0.2 | Thymus wt [1, 7]: 54.4 ± 4.5 | Thymus wt/BW [1, 7]: 2.2 ± 0.2 | Approximate Potency Compared to Fluasterone in Protecting Against DEX-induced Thymic and Splenic Involution ([1]; mice): about ⅛ | G6PDH inhibition compared with fluasterone [2]: more potent G6PDH inhibitor than fluasterone

C[C@]12CCCCC1=C[C@@H](O)[C@@H]1[C@@H]2CC[C@]2(C)C(=O)[C@H](F)C[C@@H]12 [7α-hydroxyfluasterone, 7α-hydroxy-16α-fluoro-5-androsten-17-one]
Body Weight [1, 8]: 24.5 ± 1.0 | Spleen wt [1, 8]: 46.3 ± 11.1 | Spleen wt/BW [1, 8]: 1.8 ± 0.5 | Thymus wt [1, 8]: 43.8 ± 6.9 | Thymus wt/BW [1, 8]: 1.8 ± 0.3 | Body Weight [1, 9]: 24.0 ± 1.3 | Spleen wt [1, 9]: 50.9 ± 12.5 | Spleen wt/BW [1, 9]: 2.1 ± 0.5 | Thymus wt [1, 9]: 54.8 ± 12.1 | Thymus wt/BW [1, 9]: 2.3 ± 0.4 | Approximate Potency Compared to Fluasterone in Protecting Against DEX-induced Thymic and Splenic Involution ([1]; mice): about ½

C[C@]12CC[C@H]3[C@@H](CC=C4CCCC[C@@]43C)[C@@H]1C[C@@H](F)[C@@H]2O [16α-fluoro-5-androsten-17β-ol]
Body Weight [1, 6]: 25.1 ± 1.0 | Spleen wt [1, 6]: 52.3 ± 10.8 | Spleen wt/BW [1, 6]: 2.1 ± 0.4 | Thymus wt [1, 6]: 42.3 ± 4.6 | Thymus wt/BW [1, 6]: 1.7 ± 0.2 | Body Weight [1, 10]: 25.7 ± 1.5 | Spleen wt [1, 10]: 45.9 ± 5.1 | Spleen wt/BW [1, 10]: 1.8 ± 0.2 | Thymus wt [1, 10]: 45.1 ± 5.1 | Thymus wt/BW [1, 10]: 1.8 ± 0.2 | Approximate Potency Compared to Fluasterone in Protecting Against DEX-induced Thymic and Splenic Involution ([1]; mice): < 1/12

C[C@@H]1C[C@H]2[C@@H]3CC=C4CCCC[C@]4(C)[C@H]3CC[C@]2(C)C1=O [16α-methyl-5-androsten-17-one]
Body Weight [1, 4]: 25.3 ± 0.8 | Spleen wt [1, 4]: 37.8 ± 6.1 | Spleen wt/BW [1, 4]: 1.5 ± 0.3 | Thymus wt [1, 4]: 28.0 ± 1.7 | Thymus wt/BW [1, 4]: 1.1 ± 0.1 | Approximate Potency Compared to Fluasterone in Protecting Against DEX-induced Thymic and Splenic Involution ([1]; mice): about ⅙ or less

C[C@H]1CC[C@@]2(C)C(=CC[C@@H]3[C@@H]2CC[C@]2(C)C(=O)CC[C@@H]32)C1 [3β-methyl-5-androsten-17-one]
Spleen wt [1, 4]: 70.7 + 4.5 | Spleen wt/BW [1, 4]: 2.9 + 0.2 | Thymus wt [1, 4]: 61.9 + 3.9 | Thymus wt/BW [1, 4]: 2.6 + 0.2 | Spleen wt [1, 5]: 67.0 ± 11.3 | Spleen wt/BW [1, 5]: 2.6 ± 0.2 | Thymus wt [1, 5]: 62.2 ± 4.1 | Thymus wt/BW [1, 5]: 2.4 ± 0.2 | Approximate Potency Compared to Fluasterone in Protecting Against DEX-induced Thymic and Splenic Involution ([1]; mice): slightly less active | rank of activity among steroids tested against DEX-induced thymic and splenic involution ([1]; mice): almost as great potency

C[C@H]1CC[C@@]2(C)C(=CC[C@@H]3[C@@H]2CC[C@]2(C)C(=O)[C@H](Cl)C[C@@H]32)C1 [3β-methyl-16α-chloro-5-androsten-17-one]
Spleen wt [1, 4]: 42.3 ± 5.6 | Spleen wt/BW [1, 4]: 1.6 ± 0.2 | Thymus wt [1, 4]: 31.7 ± 4.1 | Thymus wt/BW [1, 4]: 1.2 ± 0.1 | Spleen wt [1, 5]: 38.6 ± 6.3 | Spleen wt/BW [1, 5]: 1.2 ± 0.3 | Thymus wt [1, 5]: 28.6 ± 3.2 | Thymus wt/BW [1, 5]: 1.1 ± 0.1 | Approximate Potency Compared to Fluasterone in Protecting Against DEX-induced Thymic and Splenic Involution ([1]; mice): about ⅙ or considerably

C[C@]12CCCCC1=CC[C@@H]1[C@@H]2CC[C@]2(C)C(=O)[C@H](O)C[C@@H]12 [16α-hydroxy-5-androsten-17-one]
Body Weight [1, 6]: 25.4 ± 1.5 | Spleen wt [1, 6]: 46.6 ± 7.5 | Spleen wt/BW [1, 6]: 1.8 ± 0.2 | Thymus wt [1, 6]: 41.2 ± 1.3 | Thymus wt/BW [1, 6]: 1.6 ± 0.1 | Body Weight [1, 10]: 23.8 ± 0.8 | Spleen wt [1, 10]: 53.6 ± 6.3 | Spleen wt/BW [1, 10]: 2.2 ± 0.3 | Thymus wt [1, 10]: 45.9 ± 3.1 | Thymus wt/BW [1, 10]: 1.9 ± 0.2 | Approximate Potency Compared to Fluasterone in Protecting Against DEX-induced Thymic and Splenic Involution ([1]; mice): about 1/12

C[C@H]1CC[C@@]2(C)C(=CC[C@@H]3[C@@H]2CC[C@]2(C)C(=O)[C@H](C)C[C@@H]32)C1 [3β-methyl-16α-methyl-5-androsten-17-one]
recovery from anesthesia (two mice of the group) ([1]; 20 mg/kg group, Example 9): never recovered from anesthesia | Spleen wt [1, 4]: 44.9 + 9.2 | Spleen wt/BW [1, 4]: 1.7 + 0.3 | Thymus wt [1, 4]: 42.6 + 4.7 | Thymus wt/BW [1, 4]: 1.7 + 0.2 | Spleen wt [1, 5]: 44.4 ± 8.7 | Spleen wt/BW [1, 5]: 1.8 ± 0.3 | Thymus wt [1, 5]: 37.7 ± 4.0 | Thymus wt/BW [1, 5]: 1.5 ± 0.2 | Approximate Potency Compared to Fluasterone in Protecting Against DEX-induced Thymic and Splenic Involution ([1]; mice): about ⅙

C[C@]12CCCCC1=CC[C@@H]1[C@@H]2CC[C@]2(C)C(=O)[C@H](F)C[C@@H]12 [^14C-Fluasterone]
metabolism after oral administration [3]: extensive first-pass hepatic and/or gastrointestinal metabolism

Source: patent US9408856B2, “Topical steroidal formulations” (Temple University—Of The Commonwealth System of Higher …, priority 2008, dated 2016)
